# Where two headings read alike, the source gives them in different places.
# Columns and labels:
# HT29 = test: Colony formation / cell survival assay, HT29 colon cancer cells; assay type: cell-based, human; conditions: for effect on ability of HT29 cells to reproduce / IC50: FIG. 1; for effect on ability of HT29 cells to reproduce: β-lapachone at approximately 10 μM; for IC50: HT-29, HT29, 4 h exposure, read-out: ED50 (the source's name)
# Method: (§1) The control flasks are treated with DMSO only. […] The remaining flasks are left untouched.
# (§2) The cells are monitored for colony formation. […] The plating efficiency for each dish is then calculated.
# (§3) The cell lines HT29 and BE are both human colon cancer cell lines which are used to test the effectiveness of a given agent against cancer cell growth and proliferation. […] The HT29 and BE cell cultures were prepared and tested according to the protocol given above.
# BE = test: Colony formation / cell survival assay, BE colon cancer cells; assay type: cell-based, human; conditions: for effect on ability of BE cells to reproduce / IC50: FIG. 2; for effect on ability of BE cells to reproduce: β-lapachone at approximately 10 μM; for viability at 2 µM / viability at 10 µM / viability at 20 µM / viability at 100 µM / IC50: Homo sapiens; for viability at 2 µM / viability at 10 µM / viability at 20 µM / viability at 100 µM: 4 h, read-out: Fraction of Cell Survival; for IC50: BE, 4 h exposure, read-out: ED50 (the source's name)
# Method: as §1, §2, §3
# A549 = test: Colony formation / cell survival assay, A549 lung cancer cells; assay type: cell-based; conditions: Homo sapiens, A549, 4 h; for IC50: A549, 4 h exposure, read-out: ED50 (the source's name)
# Method: as §1, §2
# The compounds tested were β-lapachone, 3-hydroxy-β-lapachone, 3,3-DINOR-dunnione (designated "Drug A" in the figures), 3-NOR-dunnione (designated "Drug B" in the figures) and dunnione itself (designated "Drug C" in the figures). A legend for the figures is provided below. The cell lines were cultured and the compounds evaluated according to the standard protocol described above.
# MCF7 = test: Colony formation / cell survival assay, MCF7 breast cancer cells; conditions: Homo sapiens, MCF7, 4 h
# Method: 10 standard culture flasks for each drug to be tested are plated with 5×10^5 cells in 5 mL of media and allowed to incubate for 16-24 hours at 37° C.
# Fresh stocks of the compounds to be evaluated are prepared in sterile DMSO. For each drug, two of the ten culture flasks prepared on Day 1 are used as controls. The control flasks are treated with DMSO only. […] The remaining flasks are left untouched. The cells are incubated for 4 hours at 37° C.
# After 4 hours the control flasks are counted (2 counts for each flask) and the cells per mL calculated based on the average of the control counts. The cells are then replated into six 60 mm dishes for each flask from dilutions based on the cells/mL of the control. (In the various test runs, cell concentrations ranged from approximately 50 to approximately 800 cells per mL.) Day 15-20:
# The cells are monitored for colony formation. […] The plating efficiency for each dish is then calculated. The plating efficiencies of the six dishes for each flask are averaged and the standard deviation is calculated. The fraction of cell survival at each concentration is determined based on the controls and plotted as log fraction of cell survival±standard deviation versus the dose of the compound.
# In the same fashion as the above tests, several lapachone and dunnione derivatives were evaluated for their efficacy in inhibiting the proliferation of breast cancer cells. In this instance, the cancer cell line utilized was MCF7.
# [1] = tested on: human prostate cancer cell line PC-3; test: IC50 determination (DNA amount and anchorage-dependent colony formation), prostate cancer PC-3; assay type: cell-based; conditions: PC-3, 24 hours exposure
# Method: (§4) Table 15 lists the IC50 determinations of Drugs B, C, and D against the human prostate cancer cell line PC-3 and the human breast cancer cell line MCF7. IC50 calculations for each cell line were determined by DNA amount and anchorage-dependent colony formation (CF) as described elsewhere. (See Planchon et al. Cancer Res. 55, 3706 (1995), incorporated herein by reference.) In short, IC50 calculations for each cell line were determined by DNA amount and anchorage-dependent colony formation (CF) assays. For the CF assay, cells were seeded at 500 viable cells/well in 6-well plates and incubated overnight, then treated with equal volumes of media containing β-lapachone at final concentrations ranging from 0.005 to 50 μM in half-log increments (controls were treated with 0.25% DMSO, equivalent to the highest dose of β-lapachone used) for 4 hours or for continuous 12 hour exposures. Plates (3 wells/condition) were stained with crystal violet, and colonies of >50 normal-appearing cells were enumerated. IC50 values for various cells were calculated using drug doses with numbers of colonies surrounding 50% of control. For DNA assays, plates were harvested for IC50 determinations 8 days after treatment using a CytoFluor 2350 fluorescence measurement system (Millipore). Six-well samplings were included in the calculation of DNA fluor units for each dose. A graph of β-lapachone dose versus percentage control DNA in fluor units was used to calculate each IC50. The cells were exposed for 24 hours to the tricyclic naphthoquinones. All experiments were repeated at least twice, each in duplicate. PC-3 is an androgen-independent prostate cancer cell line.
# [2] = tested on: human breast cancer cell line MCF7; test: IC50 determination (DNA amount and anchorage-dependent colony formation), breast cancer MCF7; assay type: cell-based; conditions: MCF7, 24 hours exposure
# Method: as §4
# Topoisomerase II = test: Topoisomerase II-mediated DNA cleavage (electrophoresis); assay type: biochemical, mammalian; conditions: gels of FIGS. 9A and 9B
# Method: Analogous experiments to assay the ability of several of the compounds described herein to induce Topoisomerase II (Topo II)-mediated DNA cleavage were also performed. The results of one such experiment are depicted in the electrophoretegram of FIGS. 9A and 9B. Here, DNA was incubated in the presence of Topo II and several different compounds described herein.
# A legend for the compounds which were tested in FIGS. 9A and 9B is as follows: [drawing 25] Lane 1: R=H (β-lapachone) Lane 2: R=OH
# In the far left-hand lane of […], DNA alone is shown. Moving to the right, the next lane contains DNA and Topo II (mammalian). Lanes 1-9 of FIGS. 9A and 9B contain a series of concentrations of drugs (see Legend, above) in the presence of DNA and Topo II. Each set of lanes for each drug spans 3 orders of magnitude in concentration (0.1, 1, 10, and 100 μM). […] However, Lanes 1-9, which contain DNA, Topo II, and a drug according to the present invention, show extensive DNA cleavage.
# [3] = Homo sapiens, HT-29, 4 h, read-out: Fraction of Cell Survival
# [4] = read-out: Fraction of Cell Survival
# [5] = read-out: ED50, MCF7, 4 h exposure, FIG. 6
# [6] = read-out: Fraction of Cell Survival, A549, FIG. 4, 1 μM, 4 h
# [7] = read-out: Fraction of Cell Survival, A549, FIG. 4, 5 μM, 4 h
# [8] = read-out: Fraction of Cell Survival, A549, FIG. 4, 10 μM, 4 h
# [9] = read-out: Fraction of Cell Survival, A549, FIG. 4, 50 μM, 4 h
# [10] = read-out: ED50, MCF7, 4 h exposure, FIG. 7
# [11] = read-out: Fraction of Cell Survival, MCF7, FIG. 7, 1 μM, 4 h
# [12] = read-out: Fraction of Cell Survival, MCF7, FIG. 7, 5 μM, 4 h
# [13] = read-out: Fraction of Cell Survival, MCF7, FIG. 7, 10 μM, 4 h
# [14] = read-out: Fraction of Cell Survival, MCF7, FIG. 7, 50 μM, 4 h
# [15] = read-out: Fraction of Cell Survival, A549, FIG. 5, 1 μM, 4 h
# [16] = read-out: Fraction of Cell Survival, A549, FIG. 5, 5 μM, 4 h
# [17] = read-out: Fraction of Cell Survival, A549, FIG. 5, 10 μM, 4 h
# [18] = read-out: Fraction of Cell Survival, A549, FIG. 5, 50 μM, 4 h
# [19] = read-out: ED50, MCF7, 4 h exposure, FIG. 8
# [20] = read-out: Fraction of Cell Survival, MCF7, FIG. 8, 1 μM, 4 h
# [21] = read-out: Fraction of Cell Survival, MCF7, FIG. 8, 5 μM, 4 h
# [22] = read-out: Fraction of Cell Survival, MCF7, FIG. 8, 10 μM, 4 h
# [23] = read-out: Fraction of Cell Survival, MCF7, FIG. 8, 50 μM, 4 h
structure (smiles),measurement,setting,value
CC1(C)OC2=C(CC1O)C(=O)C(=O)c1ccccc12 (stereo not drawn) [3-hydroxy-β-lapachone],effect on ability of HT29 cells to reproduce,HT29,significantly limits the reproductive ability of these cancer cell lines
same,viability at 2 µM,HT29; [3],152%
same,viability at 10 µM,HT29; [3],119%
same,viability at 20 µM,HT29; [3],2.32%
same,viability at 100 µM,HT29; [3],0%
same,IC50,HT29; Homo sapiens,15.4 µM
same,effect on ability of BE cells to reproduce,BE,significantly limits the reproductive ability of these cancer cell lines
same,viability at 2 µM,BE,92.9%
same,viability at 10 µM,BE,39.2%
same,viability at 20 µM,BE,1.02%
same,viability at 100 µM,BE,0%
same,IC50,BE,0.6 µM
same,IC50,A549; FIG. 3,18 µM
same,viability at 1 µM,A549; [4],304%
same,viability at 5 µM,A549; [4],239%
same,viability at 10 µM,A549; [4],153%
same,viability at 50 µM,A549; [4],0%
same,IC50,MCF7; [5],7.7 µM
same,viability at 1 µM,MCF7; [4],106%
same,viability at 5 µM,MCF7; [4],68%
same,viability at 10 µM,MCF7; [4],0%
same,viability at 50 µM,MCF7; [4],0.32%
CC1CC2=C(O1)c1ccccc1C(=O)C2=O (centres unmarked) [Drug A],IC50,A549; FIG. 4,6 µM
same,viability at 1 µM,A549; [6],111%
same,viability at 5 µM,A549; [7],121%
same,viability at 10 µM,A549; [8],1.72%
same,viability at 50 µM,A549; [9],0.23%
same,IC50,MCF7; [10],1.6 µM
same,viability at 1 µM,MCF7; [11],85.4%
same,viability at 5 µM,MCF7; [12],0.36%
same,viability at 10 µM,MCF7; [13],0.18%
same,viability at 50 µM,MCF7; [14],0.18%
"CC1OC2=C(C(=O)C(=O)c3ccccc32)C1C (centres unmarked) [Drug B, 2,3-dimethyl-2,3,4,5-dihydro-naphtho (2,3-b)dihydrofuran-6,7-dione]",IC50,A549; FIG. 5,5.6 µM
same,viability at 1 µM,A549; [15],89.7%
same,viability at 5 µM,A549; [16],81.9%
same,viability at 10 µM,A549; [17],0.24%
same,viability at 50 µM,A549; [18],0%
same,IC50,[1],0.7 µM
same,IC50,[2],0.5 µM
same,IC50,MCF7; [19],1.4 µM
same,viability at 1 µM,MCF7; [20],8.88%
same,viability at 5 µM,MCF7; [21],0.32%
same,viability at 10 µM,MCF7; [22],0.16%
same,viability at 50 µM,MCF7; [23],1.54%
"CC1OC2=C(C(=O)C(=O)c3ccccc32)C1(C)C (centres unmarked) [Drug C, 2,3,3-trimethyl-2,3,4,5-tetrahydro-naphtho(2,3-b)dihydrofuran-6,7-dione]",IC50,A549; FIG. 5,4.3 µM
same,viability at 1 µM,A549; [15],110%
same,viability at 5 µM,A549; [16],40%
same,viability at 10 µM,A549; [17],0%
same,viability at 50 µM,A549; [18],0%
same,IC50,[1],0.6 µM
same,IC50,[2],0.7 µM
same,intracellular target (in words),Topoisomerase II,Topo II is an intracellular target
same,IC50,MCF7; [19],1.4 µM
same,viability at 1 µM,MCF7; [20],55.8%
same,viability at 5 µM,MCF7; [21],0.65%
same,viability at 10 µM,MCF7; [22],0.32%
same,viability at 50 µM,MCF7; [23],0.65%
Cc1cc2c(o1)-c1ccccc1C(=O)C2=O [Drug D],IC50,[1],0.9 µM
same,IC50,[2],0.7 µM
"CC1(C)CCC2=C(O1)c1ccccc1C(=O)C2=O [β-lapachone, 7,8-dihydro-2,2-dimethyl-2H-naphtho(2,3-b)dihydropyran-7,8-dione, reference compound]",effect on ability of HT29 cells to reproduce,HT29,significantly impacts upon the ability of the HT29 and BE cells to reproduce
same,viability at 1 µM,HT29; [3],96.7%
same,viability at 5 µM,HT29; [3],49%
same,viability at 10 µM,HT29; [3],0%
same,viability at 50 µM,HT29; [3],0%
same,IC50,HT29; Homo sapiens,4.8 µM
same,effect on ability of BE cells to reproduce,BE,significantly impacts upon the ability of the HT29 and BE cells to reproduce
same,viability at 2 µM,BE,1.17%
same,viability at 10 µM,BE,15.8%
same,viability at 20 µM,BE,4.39%
same,viability at 100 µM,BE,0%
same,IC50,BE,8 µM
same,IC50,A549; FIG. 3,6.1 µM
same,IC50,A549; FIG. 4,5.8 µM
same,viability at 1 µM,"A549; read-out: Fraction of Cell Survival, A549, FIG. 3, 1 μM, 4 h",265%
same,viability at 5 µM,"A549; read-out: Fraction of Cell Survival, A549, FIG. 3, 5 μM, 4 h",158%
same,viability at 10 µM,"A549; read-out: Fraction of Cell Survival, A549, FIG. 3, 10 μM, 4 h",0%
same,viability at 50 µM,"A549; read-out: Fraction of Cell Survival, A549, FIG. 3, 50 μM, 4 h",17.7%
same,viability at 1 µM,A549; [6],85.5%
same,viability at 5 µM,A549; [7],89.7%
same,viability at 10 µM,A549; [8],0.69%
same,viability at 50 µM,A549; [9],0%
same,intracellular target (in words),Topoisomerase II,Topo II is an intracellular target
same,IC50,MCF7; [5],9.8 µM
same,IC50,MCF7; [10],1.6 µM
same,viability at 1 µM,"MCF7; read-out: Fraction of Cell Survival, MCF7, FIG. 6, 1 μM, 4 h",150%
same,viability at 5 µM,"MCF7; read-out: Fraction of Cell Survival, MCF7, FIG. 6, 5 μM, 4 h",0%
same,viability at 10 µM,"MCF7; read-out: Fraction of Cell Survival, MCF7, FIG. 6, 10 μM, 4 h",0%
same,viability at 50 µM,"MCF7; read-out: Fraction of Cell Survival, MCF7, FIG. 6, 50 μM, 4 h",0.32%
same,viability at 1 µM,MCF7; [11],92%
same,viability at 5 µM,MCF7; [12],0.36%
same,viability at 10 µM,MCF7; [13],0.18%
same,viability at 50 µM,MCF7; [14],0.09%

# From US5824700A, “Ortho-quinone derivatives novel synthesis therefor and their use in the inhibition of neoplastic cell growth” (Wisconsin Alumni Research Foundation, priority 1996, dated 1998)
